{
  "source": "patent US10426773B2",
  "about": "“Systems pharmacology for treating ocular disorders” (Case Western Reserve Univeristy, priority 2011, dated 2019)",
  "key": {"[1]": {"test_system": "ROS generation in photoreceptors of Abca4−/−Rdh8−/− mice", "assay": "In vivo detection of ROS (DHE probe) in retinas of light-exposed Abca4−/−Rdh8−/− mice", "parameters": "species or system mouse", "conditions": "Example 3; DOX 10 mg/kg, GUB 2.0 mg/kg, SQ 0.5 mg/kg ip 30 min prior to light", "description": "The ROS probe, DHE, at a dose of 20 mg/kg body weight was administered to Abca4^−/−Rdh8^−/− mice via intraperitoneal injection 30 min prior to light exposure. Eye cups obtained after removing the cornea, lens and vitreous body from enucleated eye globes 3 h post light illumination were fixed in 4% paraformaldehyde. Cryosections were prepared from fixed eye cups and cut at 12 am thickness for microscopic assessment of ROS signal fluorescence in the retina.\nThe ROS probe, DHE, at a dose of 20 mg/kg body weight in 25 μl of DMSO, was administered to Abca4^−/−Rdh8^−/− mice via intraperitoneal injection 1 h prior to light exposure. Eye cups obtained after removing the cornea, lens, and vitreous body from enucleated eye globes 3 h post light illumination were fixed in 4% paraformaldehyde. Cryosections were prepared from fixed eye cups and cut at 12-am thickness for microscopic assessment of ROS fluorescence in the retina with ImageJ software (National Institutes of Health)."}, "[2]": {"test_system": "BALB/c mice", "assay": "Light-induced retinal degeneration in BALB/c mice, SLO autofluorescence imaging", "format": "in vivo, mouse", "conditions": "DOX 10, GUB 2.0, SQ 0.5 mg/kg, 7 days after light", "experimental": "SLO (Heidelberg Engineering) was carried out for in vivo whole fundus imaging of mouse retinas. […] Numbers of autofluorescent spots were counted and subjected to statistical analyses as described below.\nThese drugs were administered to 4-week-old BALB/c mice by intraperitoneal injection 30 min prior to white light exposure at 10,000 lux for 1 h. Retinal morphology was assessed 7 days after light exposure by OCT imaging and histological examination."}, "[3]": {"assay": "Quantification of selected drugs in mouse serum and eye by LC-MS", "format": "in vivo, C57BL/6J WT mice", "experimental": "C57BL/6J WT mice at 6 weeks of age (Jackson Laboratory) were treated with DOX, GUB, or SQ at a single dose of 10, 2, and 0.5 mg per kilogram, respectively. The compound was dissolved in 50% DMSO in PBS (137 mM NaCl, 2.7 mM KCl, 0.67 mM […]). Next, to precipitate excess proteins, 0.3 ml of methanol was added to both the eye homogenate and 0.1 ml of serum. Samples were vortexed for 30 s followed by centrifugation for 15 min at 16,000 g. Clear supernatants were collected and used directly for LC-MS analysis. 2HPO4/KH2PO4, pH 7.4) and administrated by intraperitoneal injection. Thirty minutes later the mice were anesthetized. Blood samples were collected using the technique of cardiac puncture and subsequently centrifuged (5 min, 16,000 g) to collect serum. Prior to harvesting eyes, mice were intracardially perfused with PBS to minimalize blood contamination. Eye balls were immediately homogenized in 0.1 ml of PBS. The homogenate and serum samples were spiked with 100 pmols of internal standard (IS) (parazosin—2-[4-(2-furoyl)piperazin-1-yl]-6,7-dimethoxyquinazolin-4-amine (Sigma Aldrich) or clenbuterol—(RS)-1-(4-Amino-3,5-dichlorophenyl)-2-(tert-butylamino)ethanol (Sigma Aldrich)) for DOX, GUB or SQ quantification, respectively.\nMass spectrometry (MS) based detection and quantification of DOX, GUB, and SQ was performed with a L×Q linear ion trap mass spectrometer (Thermo Scientific) equipped with an electrospray ionization (ESI) interface and coupled to Agilent 1100 HPLC (Agilent Technologies). Separation of drugs and the internal standards was achieved on a reverse phase C18 Phenomenex HPLC column (250×4.60 mm; 5 μm) by a linear gradient of to 100% acetonitrile in water within 15 min at flow rate of 0.5 ml/min. All solvents contained 0.1% formic acid (v/v). The HPLC effluent was sprayed into the MS via an ESI probe operated in the positive ionization mode. Parameters of ionization and detection were tuned with synthetic standards for the drugs to achieve the highest possible sensitivity. Dox and parazosin (internal standard) were detected by selected reaction monitoring (SRM) using m/z 452.2→344.2 and 384.2→247.1 transitions whereas GUB, SQ and their corresponding IS, clenbuterol, was by fragmentation at m/z 231.1→214.0, 206.1→136.0, and 277.1→259.1, respectively. The elution times for DOX, GUB, and SQ were ˜12.8, 12.3, and 10.8 min, respectively. Both internal standards eluted at 12.0 min (FIG. 34). Calibration curves were calculated based on the linear relationship between ratios of SRM ion intensity peak area corresponding to the selected drug and the IS vs. molar ratios of the compounds in the range of 20-500 pmol (FIG. 34H)."}},
  "data": [
    {"smiles": "COc1cc2nc(N3CCN(C(=O)C4COc5ccccc5O4)CC3)nc(N)c2cc1OC.CS(=O)(=O)O", "note": "(centres unmarked) [Doxazosin]", "values": [
      {"measurement": "ROS generation in photoreceptors (DHE signal)", "setting": "[1]", "value": "decreased"},
      {"measurement": "autofluorescent spots by SLO", "setting": "[2]", "value": "prevented"},
      {"measurement": "Eye ± SD", "setting": "[3]; 30 min after a single ip dose: DOX 10, GUB 2, SQ 0.5 mg per kilogram, mice perfused with PBS", "value": "11.0 ± 1.7", "unit": "pmol/eye"},
      {"measurement": "concentration at 30 min", "setting": "[3]; C57BL/6J, mouse, serum, intraperitoneal, 30 min after a single ip dose: DOX 10, GUB 2, SQ 0.5 mg per kilogram, read-out: Serum ± SD", "value": "465 ± 128", "unit": "nM"},
      {"measurement": "amount in eye compared with level in 0.1 mL of serum", "setting": "[3]; eye volume taken as about 0.1 mL", "value": 5, "unit": "times lower"}
    ]}
  ]
}
